Where two headings read alike, the source gives them in different places.
Legend:
Caco2 cell line = assay: Proliferation assay (Caco2 cell line); format: cell-based; details: Homo sapiens, Caco-2, 96 h, read-out: Biological Assay 2: Proliferation assay (Caco2 cell line) median IC50
Protocol: (§1) Cultivated tumor cells (cells were ordered from ATCC, except HeLa-MaTu and HeLa-MaTu-ADR, which were ordered from EPO-GmbH, Berlin) were plated at a density of 1000 to 5000 cells/well, depending on the growth rate of the respective cell line, in a 96-well multititer plate in 200 μL of their respective growth medium supplemented 10% fetal calf serum. After 24 hours, the cells of one plate (zero-point plate) were stained with crystal violet (see below), while the medium of the other plates was replaced by fresh culture medium (200 μL), to which the test substances were added in various concentrations (0 μM, as well as in the range of 0.001-10 μM; the final concentration of the solvent dimethyl sulfoxide was 0.5%). The cells were incubated for 4 days in the presence of test substances. Cell proliferation was determined by staining the cells with crystal violet: the cells were fixed by adding 20 μL/measuring point of an 11% glutaric aldehyde solution for 15 minutes at room temperature. After three washing cycles of the fixed cells with water, the plates were dried at room temperature. The cells were stained by adding 100 μL/measuring point of a 0.1% crystal violet solution (pH 3.0). After three washing cycles of the stained cells with water, the plates were dried at room temperature. The dye was dissolved by adding 100 μl/measuring point of a 10% acetic acid solution. Absorbtion was determined by photometry at a wavelength of 595 nm. The change of cell number, in percent, was calculated by normalization of the measured values to the absorbtion values of the zero-point plate (=0%) and the absorbtion of the untreated (0 μm) cells (=100%). The IC50 values were determined by means of a 4 parameter fit.

HeLa cell line = assay: Proliferation assay (HeLa cell line); format: cell-based; details: Homo sapiens, 96 h, read-out: Biological Assay 2: Proliferation assay (HeLa cell line) median IC50
Protocol: as §1

NCl-H460 cell line = assay: Proliferation assay (NCI-H460 cell line); format: cell-based; details: Homo sapiens, NCI-H460, 96 h, read-out: Biological Assay 2: Proliferation assay (NCl-H460 cell line) median IC50
Protocol: as §1

B16F10 cell line = assay: Proliferation assay (B16F10 cell line); format: cell-based; details: Mus musculus, B16-F10, 96 h, read-out: Biological Assay 2: Proliferation assay (B16F10 cell line) median IC50
Protocol: as §1

HeLa-MaTu-ADR cell line = assay: Proliferation assay (HeLa-MaTu-ADR cell line); format: cell-based; details: 96 h, read-out: Biological Assay 2: Proliferation assay (HeLa-MaTu-ADR cell line) median IC50
Protocol: as §1

DU145 cell line = assay: Proliferation assay (DU145 cell line); format: cell-based; details: Homo sapiens, DU-145, 96 h, read-out: Biological Assay 2: Proliferation assay (DU145 cell line) median IC50
Protocol: as §1

[1] = target: T1, catalytic domain of human Bub1 (amino acids 704-1085) (Homo sapiens, UniProt O43683); assay: Bub1 kinase assay (TR-FRET); format: biochemical
T1 construct: catalytic domain of human Bub1 (amino acids 704-1085); His6 (N); made in house; host or cells: Hi5 insect cells
T1 sequence (O43683 704-1085): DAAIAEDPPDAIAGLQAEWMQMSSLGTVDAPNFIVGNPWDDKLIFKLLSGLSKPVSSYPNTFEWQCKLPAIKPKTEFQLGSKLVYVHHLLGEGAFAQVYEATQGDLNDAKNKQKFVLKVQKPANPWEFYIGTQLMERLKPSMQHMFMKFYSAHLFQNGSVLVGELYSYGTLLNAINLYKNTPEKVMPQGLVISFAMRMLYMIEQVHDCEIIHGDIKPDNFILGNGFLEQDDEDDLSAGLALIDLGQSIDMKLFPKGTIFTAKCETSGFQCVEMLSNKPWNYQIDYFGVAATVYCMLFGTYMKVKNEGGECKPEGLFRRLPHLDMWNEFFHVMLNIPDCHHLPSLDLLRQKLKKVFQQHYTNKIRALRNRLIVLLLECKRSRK
Protocol: To this end, 100-fold concentrated compound solutions (in DMSO) were previously prepared by serial dilution (1:3.4) of 2 mM stocks in a clear low volume 384-well source microtiter plate (Greiner Bio-One, Frickenhausen, Germany), from which 50 nL of compounds were transferred into a black low volume test microtiter plate from the same supplier. […] The resulting mixture (5 μL final volume) was incubated at 22° C. during 60 min., and the reaction was stopped by the addition of 5 μL of an aqueous EDTA-solution (50 mM EDTA, in 100 mM HEPES pH 7.5 and 0.2% (w/v) bovine serum albumin) which also contained the TR-FRET detection reagents (0.2 μM streptavidin-XL665 [Cisbio Bioassays, Codolet, France] and 1 nM anti-phoshoSerine antibody [Merck Millipore, cat. #35-001] and 0.4 nM LANCE EU-W1024 labeled anti-mouse IgG antibody [Perkin-Elmer, product no. AD0077, alternatively a Terbium-cryptate-labeled anti-mouse IgG antibody from Cisbio Bioassays can be used]). The stopped reaction mixture was further incubated 1 h at 22° C. in order to allow the formation of complexes between peptides and detection reagents. Subsequently, the amount of product was evaluated by measurement of the resonance energy transfer from the Eu-chelate-antibody complex recognizing the Phosphoserine residue to the streptavidin-XL665 bound to the biotin moiety of the peptide.

[2] = Caco2, 4 days incubation, crystal violet staining
[3] = NCl-H460, 4 days incubation, crystal violet staining
[4] = B16F10, 4 days incubation, crystal violet staining
[5] = HeLa-MaTu-ADR, 4 days incubation, crystal violet staining
[6] = DU145, 4 days incubation, crystal violet staining
[7] = 10 μM ATP, 1 μM peptide substrate, TR-FRET, read-out: Biological Assay 1: Bub1 kinase assay median IC50
[8] = 4 days incubation, crystal violet staining

Row | SMILES | IC50 (HeLa cell line) [µM] | IC50 [1] [nM] | IC50 (Caco2 cell line) [nM] | IC50 (NCl-H460 cell line) [nM] | IC50 (B16F10 cell line) [nM] | IC50 (HeLa-MaTu-ADR cell line) [nM] | IC50 (DU145 cell line) [nM] | IC50 [1, 7] [nM] | IC50 (HeLa cell line; [8]) [µM] | IC50 (Caco2 cell line; [2]) [nM] | IC50 (NCl-H460 cell line; [3]) [nM] | IC50 (B16F10 cell line; [4]) [nM] | IC50 (HeLa-MaTu-ADR cell line; [5]) [nM] | IC50 (DU145 cell line; [6]) [nM]
1 | CCOc1cc(F)c(Cn2nc(-c3nc(Nc4ccncn4)nc(Nc4ccncn4)n3)c(C)c2C2CC2)c(F)c1 [Example 2-2-9, 6-[5-cyclopropyl-1-(4-ethoxy-2,6-difluorobenzyl)-4-methyl-1H-pyrazol-3-yl]-N,N′-di(pyrimidin-4-yl)-1,3,5-triazine-2,4-diamine] | 1.7 | 1700 |  |  |  |  |  |  |  | 3500 | 9900 | 8800 | 10000 | 3200
2 | CCNC(=O)Nc1cc(Nc2ccncc2)nc(-c2nn(Cc3c(F)cc(OCC)cc3F)c(C3CC3)c2C)n1 [Example 2-1-10, 1-{2-[5-cyclopropyl-1-(4-ethoxy-2,6-difluorobenzyl)-4-methyl-1H-pyrazol-3-yl]-6-(pyridin-4-ylamino)pyrimidin-4-yl}-3-ethylurea] | 1.7 |  | 1400 | 1500 | 1200 | 1100 | 2800 | 48 |  |  |  |  |  | 
3 | CCOc1cc(F)c(Cn2nc(-c3nc(Nc4ccncn4)cc(Nc4ccncn4)n3)c(C)c2C2CC2)c(F)c1 [Example 2-2-3, 2-[5-cyclopropyl-1-(4-ethoxy-2,6-difluorobenzyl)-4-methyl-1H-pyrazol-3-yl]-N,N′-di(pyrimidin-4-yl)pyrimidine-4,6-diamine] | 0.56 |  | 2600 | 1600 | 500 | 700 | 2100 | 20 |  |  |  |  |  | 
4 | CCOc1cc(F)c(Cn2nc(-c3nc(N)c(OC)c(Nc4ccncn4)n3)c(C)c2C2CC2)c(F)c1 [Example 2-1-5, 2-[5-cyclopropyl-1-(4-ethoxy-2,6-difluorobenzyl)-4-methyl-1H-pyrazol-3-yl]-5-methoxy-N-(pyrimidin-4-yl)pyrimidine-4,6-diamine] | 5.1 |  | 1900 | 7400 | 1800 | 3500 | 6900 | 5.3 |  |  |  |  |  | 
5 | CCOc1cc(F)c(Cn2nc(-c3nc(N)cc(Nc4ccncc4)n3)c(C)c2C2CC2)c(F)c1 [Example 2-1-1, 2-[5-cyclopropyl-1-(4-ethoxy-2,6-difluorobenzyl)-4-methyl-1H-pyrazol-3-yl]-N-(pyridin-4-yl)pyrimidine-4,6-diamine] | > 10 |  |  |  |  |  |  | 10 |  |  |  |  |  | 
6 | CCNC(=O)Nc1c(N)nc(-c2nn(Cc3c(F)cc(OCC)cc3F)c(C3CC3)c2C)nc1Nc1ccncc1 [Example 2-1-29, 1-{4-amino-2-[5-cyclopropyl-1-(4-ethoxy-2,6-difluorobenzyl)-4-methyl-1H-pyrazol-3-yl]-6-(pyridin-4-ylamino)pyrimidin-5-yl}-3-ethylurea] | 5.3 |  |  |  |  |  |  | 19 |  |  |  |  |  | 

Further lines, with some results ahead:

Row | IC50 (HeLa cell line) [µM] | IC50 [1] [nM] | IC50 (Caco2 cell line) [nM] | IC50 (NCl-H460 cell line) [nM] | IC50 (B16F10 cell line) [nM] | IC50 (HeLa-MaTu-ADR cell line) [nM] | IC50 (DU145 cell line) [nM] | IC50 [1, 7] [nM] | IC50 (HeLa cell line; [8]) [µM] | SMILES | IC50 (Caco2 cell line; [2]) [nM] | IC50 (NCl-H460 cell line; [3]) [nM] | IC50 (B16F10 cell line; [4]) [nM] | IC50 (HeLa-MaTu-ADR cell line; [5]) [nM] | IC50 (DU145 cell line; [6]) [nM]
7 | 0.97 |  | 1100 | 1200 | 400 | 730 | 1700 | 480 |  | CCOc1cc(F)c(Cn2nc(-c3nc(Nc4ccncc4)c(OCCOC)c(Nc4ccncc4)n3)c(C)c2C2CC2)c(F)c1 [Example 2-2-12, 2-[5-cyclopropyl-1-(4-ethoxy-2,6-difluorobenzyl)-4-methyl-1H-pyrazol-3-yl]-5-(2-methoxyethoxy)-N,N′-di(pyridin-4-yl)pyrimidine-4,6-diamine] |  |  |  |  | 
8 |  | 220 |  |  |  |  |  |  | 7 | CCOc1cc(F)c(Cn2nc(-c3nc(Nc4ccncc4)c(N4CCOCC4)c(Nc4ccncc4)n3)c(C)c2C2CC2)c(F)c1 [Example 2-2-6, 2-[5-cyclopropyl-1-(4-ethoxy-2,6-difluorobenzyl)-4-methyl-1H-pyrazol-3-yl]-5-(morpholin-4-yl)-N,N′-di(pyridin-4-yl)pyrimidine-4,6-diamine] | 2600 | 1100 | 990 | 820 | 1900
9 |  | 1000 |  |  |  |  |  |  | 10 | CCOc1cc(F)c(Cn2nc(-c3nc(Nc4ccnnc4)cc(Nc4ccnnc4)n3)c(C)c2C2CC2)c(F)c1 [Example 2-2-10, 2-[5-cyclopropyl-1-(4-ethoxy-2,6-difluorobenzyl)-4-methyl-1H-pyrazol-3-yl]-N,N′-di(pyridazin-4-yl)pyrimidine-4,6-diamine] |  |  |  |  | 

— patent US20160145267A1, “HETEROARYL SUBSTITUTED PYRAZOLES” (BAYER PHARMA AKTIENGESELLSCHAFT, priority 2013, published 2016)
